This passage reports IC50 results from patent publication US9896445B2, “Heterocyclic inhibitors of ERK1 and ERK2 and their use in the treatment of cancer” (Asana Biosciences, LLC, priority 2015, dated 2018).

Assay [1] has as its target T1, ERK2 (Homo sapiens, UniProt P28482).
T1 construct: purchased Jubilant Biosys
Put plainly: ERK2 HTRF (biochemical) assay. As to conditions: HTRF. Here is the method: (§1) ERK1 and ERK2 HTRF (Biochemical) Assays
These assays employed a homogeneous time resolved fluorescence (HTRF) technique. The compounds were serially diluted by half-log with concentrations ranging from 0.0005 to 10 uM in the assay buffer (50 mM Tris pH=7.5, 1 mM EGTA, 2 mM DTT, 10 mM MgCl2, 0.1% Tween-20) and 20 uL of substrate-ATP mix [1 uM Biotin-LC-Myelin Basic Protein (MBP) derivatized Peptide (Anaspec)-24 uM ATP (Sigma)] was added to each well of the assay plate. Then 10 uL of enzyme mix [25 nM ERK1 or ERK2 (Jubilant Biosys) in assay buffer] was added to each well. The plate was incubated at room temperature for 60 min with shaking. The HTRF mix [625 nM LANCE® Ultra Europium-anti-phospho-MBP (Perkin Elmer) and 2 nM Phycolink® Streptavidin-Allophycocyanin (SA-APC) (Prozyme) in HTRF buffer (50 mM Tris-HCl pH=7.5, 100 mM NaCl, 0.1% BSA, 0.05% Tween20, 0.5 mM EDTA)] was prepared and 75 uL of this mix was added to the HTRF plate. After incubation for 60 min at room temperature, 10 uL of the reaction mixture was transferred to the HTRF assay plate and incubated for 45 min at room temperature with shaking. Plate was read using Pherastar in HTRF mode (excitation 337 nm, emission 665 & 620 nm). The IC50 values (half maximal inhibitory concentration values) were subsequently determined using a sigmoidal dose-response curve (variable slope) in GraphPad Prism® 5 software.
In general terms: TR-FRET usually uses a lanthanide donor and a delayed reading to cut background.

In assay [2] the target is T2, ERK1 (Homo sapiens, UniProt P27361).
T2 construct: purchased Jubilant Biosys
Put plainly: ERK1 HTRF (biochemical) assay. Conditions: HTRF. How it is done: as §1
These assays employed a homogeneous time resolved fluorescence (HTRF) technique. […] The plate was incubated at room temperature for 60 min with shaking. […] The IC50 values (half maximal inhibitory concentration values) were subsequently determined using a sigmoidal dose-response curve (variable slope) in GraphPad Prism® 5 software.

The structures appear in SMILES notation.

The IC50 is the point on the concentration scale where inhibition reaches its midpoint. Low readings indicate inhibition by little substance, high ones a need for much substance.

T2 sequence (P27361 whole entry): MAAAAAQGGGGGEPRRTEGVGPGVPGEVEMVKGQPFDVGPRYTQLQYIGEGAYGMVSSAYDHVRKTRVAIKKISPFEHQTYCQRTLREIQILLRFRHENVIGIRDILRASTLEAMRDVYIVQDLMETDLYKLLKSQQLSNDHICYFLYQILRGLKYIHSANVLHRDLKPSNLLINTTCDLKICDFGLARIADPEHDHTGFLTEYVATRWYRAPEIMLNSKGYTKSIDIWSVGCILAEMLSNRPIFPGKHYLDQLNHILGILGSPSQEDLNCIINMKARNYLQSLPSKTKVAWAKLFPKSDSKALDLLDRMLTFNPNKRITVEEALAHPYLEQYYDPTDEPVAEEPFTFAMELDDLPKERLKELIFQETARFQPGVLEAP
T1 sequence (P28482 whole entry): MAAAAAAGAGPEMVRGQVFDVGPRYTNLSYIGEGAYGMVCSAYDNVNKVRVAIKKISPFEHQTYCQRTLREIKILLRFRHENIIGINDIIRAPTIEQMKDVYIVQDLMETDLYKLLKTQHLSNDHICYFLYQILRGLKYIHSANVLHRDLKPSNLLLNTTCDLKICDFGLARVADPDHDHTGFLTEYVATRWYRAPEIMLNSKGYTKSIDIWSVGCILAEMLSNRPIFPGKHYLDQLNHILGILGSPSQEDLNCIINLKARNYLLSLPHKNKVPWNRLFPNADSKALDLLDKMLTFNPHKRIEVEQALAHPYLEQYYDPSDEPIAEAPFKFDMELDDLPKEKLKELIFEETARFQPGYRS

With `Cc1cnc(NC2CCOCC2)nc1-n1cnc(C(=O)NC(CN)c2cccc(Cl)c2)c1` (racemic) [Compound 225, N-(2-Amino-1-(3-chlorophenyl)ethyl)-1-(5-methyl-2-((tetrahydro-2H-pyran-4-yl)amino)pyrimidin-4-yl)-1H-imidazole-4-carboxamide], the IC50 in assay [1] was no more than 50 nM; in assay [2], less than 50 nM.

In the case of `Cc1cnc(NC2CCOCC2)nc1-n1cnc(C(=O)N[C@@H](CN)c2cccc(Cl)c2)c1` (single isomer, unassigned) [Compound 225b], the IC50 in assay [1] was no more than 50 nM; in assay [2] it was less than 50 nM. Taken in the same sequence, the figures for `Cc1cnc(Nc2ccc(F)cc2)cc1-n1cnc(C(=O)NC(CN)c2ccccc2)c1` (single isomer, unassigned) [Compound 228, N-(2-amino-1-phenylethyl)-1-(2-((4-fluorophenyl)-amino)-5-methyl-pyridin-4-yl)-1H-imidazole-4-carboxamide] were 100 to 500 nM and 100 to 500 nM. For `Cc1cnc(NC2CCOCC2)nc1-n1cnc(C(=O)NC(c2cccc(Cl)c2)C(C)O)c1` (single isomer, unassigned) [Compound 252, N-(1-(3-chlorophenyl)-2-hydroxypropyl)-1-(5-methyl-2-((tetrahydro-2H-pyran-4-yl)amino)-pyrimidin-4-yl)-1H-imidazole-4-carboxamide], in that order: no more than 50 nM and less than 50 nM. Taken in the same sequence, the figures for `Cc1cnc(NC2CCOCC2)nc1-n1cnc(C(=O)NC(CN)c2ccc(Cl)s2)c1` (single isomer, unassigned; enantiomer #1) [Example 290, N-(2-amino-1-(5-chlorothiophen-2-yl)ethyl)-1-(5-methyl-2-((tetrahydro-2H-pyran-4-yl)amino)-pyrimidin-4-yl)-1H-imidazole-4-carboxamide (enantiomer #1)] were no more than 50 nM and less than 50 nM. For the molecule `Cc1cnc(NC2CCOCC2)nc1-n1cnc(C(=O)NC(CN)c2ccc(Cl)s2)c1` (single isomer, unassigned; enantiomer #2) [Example 291, N-(2-amino-1-(5-chlorothiophen-2-yl)ethyl)-1-(5-methyl-2-((tetrahydro-2H-pyran-4-yl)amino)-pyrimidin-4-yl)-1H-imidazole-4-carboxamide (enantiomer #2)], the values for the IC50 in assay [1] and in assay [2] were no more than 50 nM and less than 50 nM, respectively. For `O=C(Nc1cnn(-c2ccnc(Nc3ccccc3Cl)n2)c1)N[C@H](CO)c1cccc(Cl)c1` [Compound 1, (S)-1-(1-(3-chlorophenyl)-2-hydroxyethyl)-3-(1-(2-((2-chloro-phenyl)amino)pyrimidin-4-yl)-1H-pyrazol-4-yl)urea], in that order: no more than 50 nM and less than 50 nM.

With `Cc1cnc(Nc2ccccc2Cl)nc1-n1cc(NC(=O)N[C@H](CO)c2cccc(Cl)c2)cn1` [Compound 2], the half-maximal inhibitory concentration (IC50) in assay [1] is 50 to 100 nM; in assay [2] it was less than 50 nM. Taken in the same sequence, the figures for `Cc1cnc(NC2CC2)nc1-n1cc(NC(=O)N[C@H](CO)c2cccc(Cl)c2)cn1` [Compound 3, (S)-1-(1-(3-chlorophenyl)-2-hydroxyethyl)-3-(1-(2-(cyclopropyl-amino)-5-methyl-pyrimidin-4-yl)-1H-pyrazol-4-yl)urea] were 50 to 100 nM and 50 to 100 nM. Taken in the same sequence, the figures for `O=C(Nc1cnn(-c2ccnc(Nc3ccccc3Cl)n2)c1)N[C@@H](CO)c1ccccc1` [Compound 4, (R)-1-(1-(2-((2-chlorophenyl)amino)pyrimidin-4-yl)-1H-pyrazol-4-yl)-3-(2-hydroxy-1-phenylethyl)urea] were greater than 2500 nM and greater than 2500 nM. Molecule `CC(NC(=O)Nc1cnn(-c2ccnc(Nc3ccccc3Cl)n2)c1)c1cccc(Cl)c1` (stereo not shown) [Compound 5, 1-(1-(2-((2-chlorophenyl)amino)pyrimidin-4-yl)-1H-pyrazol-4-yl)-3-(1-(3-chloro-phenyl)ethyl)urea] returned an IC50 in assay [2] of 100 to 500 nM. `O=C(NCc1cccc(Cl)c1)Nc1cnn(-c2ccnc(Nc3ccccc3Cl)n2)c1` [Compound 9, 1-(3-chlorobenzyl)-3-(1-(2-((2-chloro-phenyl)amino)pyrimidin-4-yl)-1H-pyrazol-4-yl)urea] came in with an IC50 in assay [1] greater than 2500 nM. On the same count and under the same terms, next, `C[C@@H](NC(=O)Nc1cnn(-c2ccnc(Nc3ccccc3Cl)n2)c1)c1cccc(Cl)c1` [Compound 10]: greater than 2500 nM; `Cc1c(NC(=O)N[C@H](CO)c2cccc(Cl)c2)cnn1-c1ccnc(Nc2ccccc2Cl)n1` [Compound 11, (S)-1-(1-(3-chlorophenyl)-2-hydroxyethyl)-3-(1-(2-((2-chloro-phenyl)amino)pyrimidin-4-yl)-5-methyl-1H-pyrazol-4-yl)urea]: greater than 2500 nM.

`COc1cc(N2CCN(C(C)=O)CC2)ccc1Nc1nccc(-n2cc(NC(=O)N[C@H](CO)c3cccc(Cl)c3)cn2)n1` [Compound 15, (S)-1-(1-(2-((4-(4-acetylpiperazin-1-yl)-2-methoxy-phenyl)amino)pyrimidin-4-yl)-1H-pyrazol-4-yl)-3-(1-(3-chlorophenyl)-2-hydroxyethyl)urea]: the IC50 in assay [2] is 50 to 100 nM.

In the case of `Cc1cnc(Nc2ccc(F)cc2Cl)nc1-n1cc(NC(=O)N[C@H](CO)c2cccc(Cl)c2)cn1` [Compound 25, (S)-1-(1-(2-((2-chloro-4-fluoro-phenyl)amino)-5-methylpyrimidin-4-yl)-1H-pyrazol-4-yl)-3-(1-(3-chloro-phenyl)-2-hydroxy-ethyl)urea], the IC50 in assay [2] was less than 50 nM.

Turning to `Cc1cnc(Nc2ccc(F)cc2Cl)nc1-n1cc(NC(=O)N[C@H](CO)c2ccc(F)c(Cl)c2)cn1` [Compound 26, (S)-1-(1-(3-chloro-4-fluorophenyl)-2-hydroxyethyl)-3-(1-(2-((2-chloro-4-fluorophenyl)amino)-5-methyl-pyrimidin-4-yl)-1H-pyrazol-4-yl)urea], the IC50 in assay [2] was less than 50 nM. In assay [1], `Cc1cnc(Nc2ccc3c(c2)OCO3)nc1-n1cc(C(=O)N[C@H](CO)c2cccc(Cl)c2)cn1` [Compound 50, (S)-1-(2-(benzo[d][1,3]dioxol-5-ylamino)-5-methylpyrimidin-4-yl)-N-(1-(3-chloro-phenyl)-2-hydroxy-ethyl)-1H-pyrazole-4-carboxamide] had an IC50 of no more than 50 nM. Take `O=C(NC(CO)c1cccc(Cl)c1)c1cnn(-c2ccnc(Nc3ccccc3)n2)c1` (stereo not shown) [Compound 52, N-(1-(3-chloro-phenyl)-2-hydroxy-ethyl)-1-(2-(phenyl-amino)pyrimidin-4-yl)-1H-pyrazole-4-carboxamide]: the IC50 in assay [1] is 100 to 500 nM.

In assay [1], `Cc1cnc(Nc2ccc(F)cc2Cl)nc1-n1cc(NC(=O)N[C@@H](CO)c2cccc(Cl)c2)cn1` [Compound 56, (R)-1-(1-(2-((2-chloro-4-fluoro-phenyl)amino)-5-methylpyrimidin-4-yl)-1H-pyrazol-4-yl)-3-(1-(3-chloro-phenyl)-2-hydroxy-ethyl)urea] had an IC50 of 100 to 500 nM.

As to `Cc1cnc(Nc2ccccc2Cl)nc1-n1cc(NC(=O)N[C@@H](CO)c2cccc(Cl)c2)cn1` [Compound 61, (R)-1-(1-(3-chlorophenyl)-2-hydroxyethyl)-3-(1-(2-((2-chloro-phenyl)amino)-5-methylpyrimidin-4-yl)-1H-pyrazol-4-yl)urea], the IC50 in assay [1] was in the range of 500 to 2500 nM. `Cc1cnc(Nc2ccc3occc3c2)nc1-n1ccc(C(=O)NC(CO)c2ccccc2)c1` (stereo not shown) [Compound 65, 1-(2-(benzofuran-5-ylamino)-5-methylpyrimidin-4-yl)-N-(2-hydroxy-1-phenylethyl)-1H-pyrrole-3-carboxamide] registered an IC50 in assay [1] of no more than 50 nM. On the same count and under the same terms, next, `Cc1cnc(Nc2ccc(F)cc2Cl)nc1-n1ccc(C(=O)N[C@@H](CN(C)C)c2ccccc2)c1` [Compound 97, (R)-1-(2-((2-chloro-4-fluorophenyl)amino)-5-methy-lpyrimidin-4-yl)-N-(2-(dimethylamino)-1-phenylethyl)-1H-pyrrole-3-carboxamide]: 100 to 500 nM. Still for that read-out and setting: next, `Cc1cnc(Nc2ccc3ocnc3c2)nc1-n1ccc(C(=O)NC(CO)c2ccccc2)c1` (stereo not shown) [Compound 104]: 100 to 500 nM; `NCC(Cc1ccccc1)NC(=O)c1ccn(-c2ccnc(Nc3ccc(F)cc3)c2)c1` (stereo not shown) [Compound 119, N-(1-amino-3-phenylpropan-2-yl)-1-(2-((4-fluoro-phenyl)amino)pyridin-4-yl)-1H-pyrrole-3-carboxamide]: 100 to 500 nM.

`Cc1cnc(NC2CCOCC2)nc1-n1ccc(C(=O)NC(CO)c2ccccc2)c1` (stereo not shown) [Compound 120, N-(2-hydroxy-1-phenylethyl)-1-(5-methyl-2-((tetrahydro-2H-pyran-4-yl)amino)pyrimidin-4-yl)-1H-pyrrole-3-carboxamide] displayed an IC50 in assay [1] of 100 to 500 nM. In turn, `O=C(NC(CO)c1ccccc1)c1ccn(-c2nc(Nc3ccc(F)cc3Cl)ncc2C(F)(F)F)c1` (stereo not shown) [Compound 122, 1-(2-((2-chloro-4-fluorophenyl)amino)-5-(trifluoro-methyl)pyrimidin-4-yl)-N-(2-hydroxy-1-phenylethyl)-1H-pyrrole-3-carboxamide] returned an IC50 in assay [1] greater than 2500 nM.
